Assay results as given in ChEMBL document CHEMBL1126214, “Muscarinic agonist SAR of azaspirodioxolanes” (Bioorg Med Chem Lett, 1992).

How the values were obtained:
[1] = molecular target: T1, Muscarinic acetylcholine receptor M1 (Rattus norvegicus) (UniProt P08482); conditions: Ileum
T1 sequence (whole entry): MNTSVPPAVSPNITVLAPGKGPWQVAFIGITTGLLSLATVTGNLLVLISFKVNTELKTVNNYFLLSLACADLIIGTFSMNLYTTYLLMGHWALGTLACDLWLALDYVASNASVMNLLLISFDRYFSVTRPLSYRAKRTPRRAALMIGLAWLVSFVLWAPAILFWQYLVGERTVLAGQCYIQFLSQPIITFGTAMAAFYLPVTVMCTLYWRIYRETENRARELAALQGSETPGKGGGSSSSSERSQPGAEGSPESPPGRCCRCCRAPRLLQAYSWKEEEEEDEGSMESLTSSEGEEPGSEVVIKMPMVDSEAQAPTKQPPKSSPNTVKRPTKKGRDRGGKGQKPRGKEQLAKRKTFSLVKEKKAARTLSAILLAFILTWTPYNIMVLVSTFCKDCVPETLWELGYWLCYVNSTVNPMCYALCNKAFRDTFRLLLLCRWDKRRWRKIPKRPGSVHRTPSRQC
Description: In vitro for muscarinic M1 receptor agonist potency in the ileum model as a functional measure of peripheral muscarinic activity.

[2] = molecular target: T1, Muscarinic acetylcholine receptor M1 (Rattus norvegicus)
Description: In vitro muscarinic agonist potency in the ganglion model as a functional measure of central muscarinic M1 receptor activity.

[3] = molecular target: T2, Muscarinic acetylcholine receptor M1 (Rattus norvegicus, UniProt P08482); test: In vitro 100 nM cortex affinity to displace [3H]- -CD providing a measure of muscarinic m1 receptor agonist affinity
T2 sequence (P08482 whole entry): T1 sequence (whole entry)

[4] = molecular target: T2, Muscarinic acetylcholine receptor M1; test: (§1) Compound was tested in vitro for its muscarinic m1 receptor agonist potency in the ileum model as a functional measure of peripheral muscarinic m1 receptor activity; type: tissue-based; conditions: read-out: pA2 (converted)
[5] = molecular target: T2, Muscarinic acetylcholine receptor M1; test: In vitro 100 nM cortex affinity to displace [3H]- -pirenzepine providing a measure of muscarinic m1 receptor antagonist affinity
[6] = molecular target: T1, Muscarinic acetylcholine receptor M1 (Rattus norvegicus); test: Compound was tested in vitro for its muscarinic agonist potency in the ganglion model as a functional measure of central muscarinic m1 receptor activity
[7] = molecular target: T1, Muscarinic acetylcholine receptor M1 (Rattus norvegicus); test: as §1; type: tissue-based
[8] = molecular target: T2, Muscarinic acetylcholine receptor M1; test: Compound was tested in vitro for its efficacy in the ileum model as a functional measure of peripheral muscarinic m1 receptor activity; type: tissue-based; conditions: read-out: pA2 (converted)

SMILES | pD2 [1] | pD2 [2] | Ki [3] [nM] | Kb [4] [nM] | Ki [5] [nM] | pD2 [6] | pD2 [7] | Kb [8] [nM]
C[C@@H]1O[C@H](C[N+](C)(C)C)C[C@H]1O | 6.8 | 7.4 | – | – | – | – | – | –
C[C@@H]1OCC2(CCN(C)C2)O1 (stereo in doubt; trans) [listing 1 of 2 here] | 4.5 | – | – | – | – | – | – | –
CN1CCC2(CC1)COC(c1ccccc1)O2 (centres undefined) | – | – | 2800 | 5010 | 620 | – | – | –
C[C@H]1OC2(CS1)CN1CCC2CC1 (some centres undefined) | 4.9 | 6.1 | 105 | – | 430 | – | – | –
C[C@@H]1OCC2(CN3CCC2CC3)O1 (some centres undefined) | 4.8 | 6 | 90 | – | 1570 | – | – | –
C[C@@H]1OCC2(CN3CCC2C3)O1 (some centres undefined) | 5.5 | 5.7 | 180 | – | 6400 | – | – | –
C[C@H]1OC[C@@H](C[N+](C)(C)C)O1 | 7.5 | 7.8 | 6.4 | – | 2100 | – | – | –
CCC1C(=O)CC2(CCN(C)CC2)C1=O (centres undefined) | 6.1 | 6.7 | 87 | – | 765 | – | – | –
CN1CCC2(CC1)COCO2 | 4.6 | – | 1200 | – | > 10000 | 4.6 | – | –
C#CC1OCC2(CCN(C)CC2)O1 (centres undefined) | 5.2 | 5.9 | 295 | – | 3000 | – | – | –
CN1CCC2(CC1)COC(C)(C)O2 | – | < 4 | > 10000 | – | > 10000 | – | < 4 | –
C[C@@H]1OCC2(CCN(C)C2)S1 (some centres undefined) | – | – | 9150 | – | > 10000 | – | – | –
C[C@H]1OCC2(CN3CCC2C3)O1 (some centres undefined) | 4.1 | 4.4 | 1850 | – | > 10000 | – | – | –
C[C@@H]1OCC2(CCN(C)C2)O1 (stereo in doubt; cis) [listing 1 of 2 here] | – | – | 550 | – | > 10000 | – | – | –
COC1OCC2(CCN(C)CC2)O1 (centres undefined) | 4.7 | 5.5 | 870 | – | > 10000 | – | – | –
C[C@@H]1OCC2(CCN(C)C2)O1 (stereo in doubt; trans) [listing 2 of 2 here] | – | – | 1750 | – | > 10000 | – | – | –

SMILES | pD2 [1] | pD2 [2] | Ki [3] [nM] | Kb [4] [nM] | Ki [5] [nM] | pD2 [6] | pD2 [7] | Kb [8] [nM]
CC1OCC2(CC[N+](C)(C)CC2)O1 (centres undefined) | 5.2 | 6.1 | 210 | – | 5000 | – | – | –
CC1OCC2(CCN(C)CC2)S1 (centres undefined) | 5.1 | 5.6 | 720 | – | 3160 | – | – | –
CC1OC[C@@]2(CN3CCC2C3)O1 (some centres undefined) | 5.9 | – | 30 | – | 1950 | 6.5 | – | –
C[C@@H]1OCC2(CCN(C)C2)O1 (stereo in doubt; cis) [listing 2 of 2 here] | 5.2 | 5.6 | – | – | – | – | – | –
CC1OC2(CCN(C)CC2)CS1 (centres undefined) | 6 | 6.1 | 185 | – | 2650 | – | – | –
CC1SCC2(CCN(C)CC2)S1 (centres undefined) | 4.9 | 5 | 530 | – | 2100 | – | – | –
CC1OCC2(CCCN(C)C2)O1 (centres undefined) | < 4 | < 4 | – | – | – | – | – | –
CCC1OCC2(CCN(C)CC2)O1 (centres undefined) | 5 | 5.5 | 745 | – | 1320 | – | – | –
C[C@@H]1OC2(CS1)CN1CCC2CC1 (some centres undefined) | 5.4 | 5.7 | 515 | – | 1250 | – | – | –
CN1CCC2(CC1)COC(c1ccccc1)(c1ccccc1)O2 | – | – | 8.1 | 10 | 0.6 | – | – | 6.31
CC1OCC2(CCNCC2)O1 (centres undefined) | 5.1 | 5.9 | 145 | – | > 10000 | – | – | –
CC1C(=O)CC2(CCN(C)CC2)C1=O (centres undefined) | 5.5 | 6.2 | 175 | – | 4050 | – | – | –
CN1CCC2(CC1)COC(C(Cl)(Cl)Cl)O2 (centres undefined) | – | – | 960 | – | 200 | – | – | –
CC[C@H](C)[C@@H]1NC(=O)[C@H](CCCN=C(N)N)NC(=O)[C@@H](CC(=O)O)NC(=O)[C@H]([C@@H](C)CC)NC(=O)[C@@H](CCCN=C(N)N)NC(=O)CNC(=O)CNC(=O)[C@@H](Cc2ccccc2)NC(=O)[C@H](C)NC(=O)[C@@H](NC(=O)[C@H](CO)NC(=O)[C@@H](N)CO)CSSC[C@@H](C(=O)N2C[C@H](C(=O)N[C@H](CCCN=C(N)N)C(=O)O)Cc3ccccc32)NC1=O | 4.1 | < 4 | – | – | – | – | – | –
C[C@H]1OC2(CCN(C)C2)CS1 (some centres undefined) | 5.2 | 5.7 | 585 | – | 6700 | – | – | –
